# Source: patent US20240044922A1, “DEVICE AND METHODS FOR MEASURING PLATELET-FIBRIN CLOT CONTRACTION KINETICS” (University of Kentucky Research Foundation, priority 2022, published 2024)
# System: washed mouse platelets
# Test: Clot contraction assay, time-lapse imaging of washed mouse platelets with thrombin, fibrinogen and CaCl2
# Type: cell-based
# Conditions: for AUC / Average Velocity / Clot Contraction Extent / Lag time / PHASE 1 % Contraction / PHASE 1 Rate 1 / PHASE 1 t1 / PHASE 2 % Contraction / PHASE 2 Rate 2 / PHASE 2 t2 / PHASE 3 % Contraction / PHASE 3 Rate 3: CaCl2 0.5 mM
# [1] = fibrinogen 62 μg/mL, thrombin 20 mU/mL
# [2] = fibrinogen 125 μg/mL, thrombin 20 mU/mL
# [3] = fibrinogen 250 μg/mL, thrombin 20 mU/mL
# [4] = fibrinogen 500 μg/mL, thrombin 20 mU/mL
# [5] = fibrinogen 1000 μg/mL, thrombin 20 mU/mL
# [6] = increased thrombin concentration, 10-200 mU/mL
# [7] = thrombin 10 mU/mL, fibrinogen 250 μg/mL
# [8] = thrombin 20 mU/mL, fibrinogen 250 μg/mL
# [9] = thrombin 30 mU/mL, fibrinogen 250 μg/mL
# [10] = thrombin 50 mU/mL, fibrinogen 250 μg/mL
# [11] = thrombin 100 mU/mL, fibrinogen 250 μg/mL
substance,measurement,setting,value
Fibrinogen,AUC,[1],6.66 AU
same,Average Velocity,[1],0.53 %/min
same,Clot Contraction Extent,[1],53.50%
same,Lag time,[1],46.67 min
same,PHASE 1 % Contraction,[1],2.11%
same,PHASE 1 Rate 1,[1],1.50 ×10^−3 %/min
same,PHASE 1 t1,[1],13.00 min
same,PHASE 2 % Contraction,[1],24.32%
same,PHASE 2 Rate 2,[1],1.19 %/min
same,PHASE 2 t2,[1],28.00 min
same,PHASE 3 % Contraction,[1],43.44%
same,PHASE 3 Rate 3,[1],2.90 ×10^−2 %/min
same,AUC,[2],4.13 AU
same,Average Velocity,[2],1.00 %/min
same,Clot Contraction Extent,[2],98.07%
same,Lag time,[2],26.40 min
same,PHASE 1 % Contraction,[2],2.72%
same,PHASE 1 Rate 1,[2],2.25 ×10^−3 %/min
same,PHASE 1 t1,[2],10.75 min
same,PHASE 2 % Contraction,[2],37.99%
same,PHASE 2 Rate 2,[2],1.66 %/min
same,PHASE 2 t2,[2],30.75 min
same,PHASE 3 % Contraction,[2],57.36%
same,PHASE 3 Rate 3,[2],5.90 ×10^−2 %/min
same,AUC,[3],4.23 AU
same,Average Velocity,[3],0.98 %/min
same,Clot Contraction Extent,[3],96.87%
same,Lag time,[3],21.67 min
same,PHASE 1 % Contraction,[3],3.26%
same,PHASE 1 Rate 1,[3],2.18 ×10^−3 %/min
same,PHASE 1 t1,[3],10.40 min
same,PHASE 2 % Contraction,[3],26.29%
same,PHASE 2 Rate 2,[3],1.50 %/min
same,PHASE 2 t2,[3],29.40 min
same,PHASE 3 % Contraction,[3],67.28%
same,PHASE 3 Rate 3,[3],4.96 ×10^−2 %/min
same,AUC,[4],4.89 AU
same,Average Velocity,[4],0.89 %/min
same,Clot Contraction Extent,[4],88.42%
same,Lag time,[4],17.80 min
same,PHASE 1 % Contraction,[4],3.48%
same,PHASE 1 Rate 1,[4],2.78 ×10^−3 %/min
same,PHASE 1 t1,[4],9.40 min
same,PHASE 2 % Contraction,[4],19.02%
same,PHASE 2 Rate 2,[4],1.10 %/min
same,PHASE 2 t2,[4],26.00 min
same,PHASE 3 % Contraction,[4],65.92%
same,PHASE 3 Rate 3,[4],3.32 ×10^−2 %/min
same,Efficiency of contraction,"fibrinogen 1,000 μg/mL",too high for efficient contraction
same,AUC,[5],6.18 AU
same,Average Velocity,[5],0.69 %/min
same,Clot Contraction Extent,[5],68.91%
same,Lag time,[5],39.80 min
same,PHASE 1 % Contraction,[5],4.20%
same,PHASE 1 Rate 1,[5],3.03 ×10^−3 %/min
same,PHASE 1 t1,[5],11.80 min
same,PHASE 2 % Contraction,[5],10.11%
same,PHASE 2 Rate 2,[5],0.70 %/min
same,PHASE 2 t2,[5],25.40 min
same,PHASE 3 % Contraction,[5],54.53%
same,PHASE 3 Rate 3,[5],1.92 ×10^−2 %/min
same,Fibrinogen concentrations with highest extent and average velocity of contraction,"fibrinogen 62.5 to 1,000 μg/mL",highest at 125 and 250
Thrombin,Effect on extent of clot contraction,[6],remained unchanged
same,Effect on lag time,[6],decreased
same,Increase of Phase 1 (initiation) rate,over the thrombin concentration range tested,~5 fold
same,AUC,[7],5.62 AU
same,Average Velocity,[7],0.82 %/min
same,Clot Contraction Extent,[7],80.19%
same,Lag time,[7],28.33 min
same,PHASE 1 % Contraction,[7],4.93%
same,PHASE 1 Rate 1,[7],4.27 ×10^−3 %/min
same,PHASE 1 t1,[7],13.33 min
same,PHASE 2 % Contraction,[7],23.95%
same,PHASE 2 Rate 2,[7],1.02 %/min
same,PHASE 2 t2,[7],36.00 min
same,PHASE 3 % Contraction,[7],51.32%
same,PHASE 3 Rate 3,[7],3.93 ×10^−2 %/min
same,AUC,[8],4.90 AU
same,Average Velocity,[8],0.90 %/min
same,Clot Contraction Extent,[8],88.45%
same,Lag time,[8],19.33 min
same,PHASE 1 % Contraction,[8],4.66%
same,PHASE 1 Rate 1,[8],4.67 ×10^−3 %/min
same,PHASE 1 t1,[8],11.33 min
same,PHASE 2 % Contraction,[8],31.74%
same,PHASE 2 Rate 2,[8],1.33 %/min
same,PHASE 2 t2,[8],36.33 min
same,PHASE 3 % Contraction,[8],52.05%
same,PHASE 3 Rate 3,[8],3.63 ×10^−2 %/min
same,AUC,[9],4.10 AU
same,Average Velocity,[9],0.94 %/min
same,Clot Contraction Extent,[9],92.41%
same,Lag time,[9],15.33 min
same,PHASE 1 % Contraction,[9],6.03%
same,PHASE 1 Rate 1,[9],6.67 ×10^−3 %/min
same,PHASE 1 t1,[9],8.67 min
same,PHASE 2 % Contraction,[9],20.91%
same,PHASE 2 Rate 2,[9],1.67 %/min
same,PHASE 2 t2,[9],22.00 min
same,PHASE 3 % Contraction,[9],65.45%
same,PHASE 3 Rate 3,[9],2.70 ×10^−2 %/min
same,AUC,[10],3.69 AU
same,Average Velocity,[10],0.94 %/min
same,Clot Contraction Extent,[10],92.51%
same,Lag time,[10],10.67 min
same,PHASE 1 % Contraction,[10],6.96%
same,PHASE 1 Rate 1,[10],27.33 ×10^−3 %/min
same,PHASE 1 t1,[10],6.67 min
same,PHASE 2 % Contraction,[10],16.04%
same,PHASE 2 Rate 2,[10],1.97 %/min
same,PHASE 2 t2,[10],18.00 min
same,PHASE 3 % Contraction,[10],69.51%
same,PHASE 3 Rate 3,[10],3.10 ×10^−2 %/min
same,AUC,[11],3.32 AU
same,Average Velocity,[11],0.97 %/min
same,Clot Contraction Extent,[11],94.93%
same,Lag time,[11],9.00 min
same,PHASE 1 % Contraction,[11],6.55%
same,PHASE 1 Rate 1,[11],21.33 ×10^−3 %/min
same,PHASE 1 t1,[11],5.00 min
same,PHASE 2 % Contraction,[11],19.72%
same,PHASE 2 Rate 2,[11],2.02 %/min
same,PHASE 2 t2,[11],18.67 min
same,PHASE 3 % Contraction,[11],68.67%
same,PHASE 3 Rate 3,[11],3.43 ×10^−2 %/min
